According to patent US20030022821A1, “Bioactive peptides” (priority 1998, published 2003):
Converted amounts (≈) assume the structure as drawn. Like-named read-outs stand apart in the source and are kept apart here. Ends that are not written are not given here. Peptide text beside a SMILES is read from it. * marks the point of attachment. Acm = CC(=O)NC*

Columns and labels:
[1] = system: Staphylococcus aureus ATCC 25923; format: cell-based
Method: (§1) The bacterial strains used were: Escherichia coli ATCC 25922 and Staphylococcus aureus ATCC 25923. All strains were stored at −70° C. The bacteria were grown in 2% Bacto Peptone water (Difco 1807-17-4). All tests were performed with bacteria in mid-logarithmic growth phase. Determination of the minimum inhibitory concentration (MIC) of the peptides for bacterial strains were performed in 1% Bacto Peptone water. A standard microdilution technique with an inoculum of 2×10^6 CFU/ml was used. All assays were performed in triplets. Since the peptides are positively charged and therefore could adhere to the plastic wells, we controlled the actual concentration of the peptides in the solution by HPLC. There was no difference between the concentration of the peptides before or after adding the solution to the plastic wells.

[2] = system: Escherichia coli ATCC 25922; format: cell-based
Method: as §1

Compound: CSCC[C@H](NC(=O)[C@H](CCCNC(=N)N)NC(=O)[C@H](Cc1c[nH]c2ccccc12)NC(=O)[C@H](CCC(N)=O)NC(=O)[C@H](Cc1c[nH]c2ccccc12)NC(=O)[C@H](CCCNC(=N)N)NC(=O)[C@H](CCCNC(=N)N)NC(=O)[C@H](CSCNC(C)=O)NC(=O)[C@H](CCCCN)NC(=O)[C@@H](N)CCCCN)C(=O)N[C@@H](CCCCN)C(=O)N[C@@H](CCCCN)C(=O)N[C@@H](CC(C)C)C(=O)NCC(=O)N[C@@H](C)C(=O)O [LFB K1] (H-KKC(Acm)RRWQWRMKKLGA-OH; N-terminus assumed)
- MIC S. aureus ATCC 25923 ([1]; ATCC 25923): 100 µg/mL
- MIC S. aureus ATCC 25923 ([1]; Table 1, value in brackets): 50 µM
- MIC S. aureus ([1]; Table 12): 100 µg/mL (≈ 48.9 µM)
- MIC E. coli ATCC 25922 ([2]; ATCC 25922): 60 µg/mL
- MIC E. coli ATCC 25922 ([2]; Table 1, value in brackets): 30 µM
- MIC E. coli ([2]; Table 12): 60 µg/mL (≈ 29.3 µM)

Compound: CSCC[C@H](NC(=O)[C@H](CCCNC(=N)N)NC(=O)[C@H](CCCNC(=N)N)NC(=O)[C@H](CCC(N)=O)NC(=O)[C@H](Cc1c[nH]c2ccccc12)NC(=O)[C@H](CCC(N)=O)NC(=O)[C@H](Cc1ccc(O)cc1)NC(=O)[C@H](CSCNC(C)=O)NC(=O)[C@H](CCCCN)NC(=O)[C@@H](N)CO)C(=O)N[C@@H](CCCNC(=N)N)C(=O)N[C@@H](CCCCN)C(=O)N[C@@H](CC(C)C)C(=O)NCC(=O)N[C@@H](C)C(=O)O [Native LFG, SKCYQWQRRMRKLGA] (H-SKC(Acm)YQWQRRMRKLGA-OH; N-terminus assumed)
- MIC E. coli ([2]; Table 4): 750 µg/mL (≈ 378 µM)

Compound: CSCC[C@H](NC(=O)[C@H](CCCNC(=N)N)NC(=O)[C@H](Cc1c[nH]c2ccccc12)NC(=O)[C@H](CCC(N)=O)NC(=O)[C@H](Cc1c[nH]c2ccccc12)NC(=O)[C@H](CCCNC(=N)N)NC(=O)[C@H](C)NC(=O)[C@H](CSCNC(C)=O)NC(=O)[C@H](CCCCN)NC(=O)[C@@H](N)Cc1ccccc1)C(=O)N[C@@H](CCCCN)C(=O)N[C@@H](CCCCN)C(=O)N[C@@H](CC(C)C)C(=O)NCC(=O)N[C@@H](C)C(=O)O [LFB A4] (H-FKC(Acm)ARWQWRMKKLGA-OH)
- MIC S. aureus ([1]; ATCC 25923): >200 µg/mL

Compound: RWWRYWR-NH2 [LFM 18-24 R1, 7 W2,3, 6Y5NH2, ARG-TRP-TRP-ARG-TYR-TRP-ARG-CONH2]
- MIC E. coli ([2]; ATCC 25922): 10 µg/mL
- MIC E. coli ([2]; Table 14, peptides with a proportion of D amino acids): 10 µg/mL

Compound: CSCC[C@H](NC(=O)[C@H](CCCNC(=N)N)NC(=O)[C@H](Cc1c[nH]c2ccccc12)NC(=O)[C@H](CCC(N)=O)NC(=O)[C@H](Cc1c[nH]c2ccccc12)NC(=O)[C@H](CCCNC(=N)N)NC(=O)[C@H](CC(C)C)NC(=O)[C@H](CSCNC(C)=O)NC(=O)[C@H](CCCCN)NC(=O)[C@@H](N)CCC(=O)O)C(=O)N[C@@H](CCCNC(=N)N)C(=O)N[C@@H](CCCCN)C(=O)N[C@@H](Cc1ccc(O)cc1)C(=O)NCC(=O)NCC(=O)O [LFM R9 W8 Y13] (H-EKC(Acm)LRWQWRMRKYGG-OH; N-terminus and C-terminus assumed)
- MIC S. aureus ([1]; ATCC 25923): 1000 µg/mL (≈ 483 µM)
- MIC E. coli ([2]; ATCC 25922): 150 µg/mL (≈ 72.5 µM)

Compound: CSCC[C@H](NC(=O)[C@H](CCCNC(=N)N)NC(=O)[C@H](Cc1c[nH]c2ccccc12)NC(=O)[C@H](CCC(N)=O)NC(=O)[C@H](Cc1c[nH]c2ccccc12)NC(=O)[C@H](C)NC(=O)[C@H](CCCNC(=N)N)NC(=O)[C@H](CSCNC(C)=O)NC(=O)[C@H](CCCCN)NC(=O)[C@@H](N)Cc1ccccc1)C(=O)N[C@@H](CCCCN)C(=O)N[C@@H](CCCCN)C(=O)N[C@@H](CC(C)C)C(=O)NCC(=O)N[C@@H](C)C(=O)O [LFB A5] (H-FKC(Acm)RAWQWRMKKLGA-OH)
- MIC S. aureus ([1]; ATCC 25923): >200 µg/mL
- MIC E. coli ([2]; ATCC 25922): 120 µg/mL (≈ 60.6 µM)

Compound: CSCC[C@H](NC(=O)[C@H](CCCNC(=N)N)NC(=O)[C@H](Cc1ccc(-c2ccccc2)cc1)NC(=O)[C@H](CCC(N)=O)NC(=O)[C@H](Cc1c[nH]c2ccccc12)NC(=O)[C@H](CCCNC(=N)N)NC(=O)[C@H](CCCNC(=N)N)NC(=O)[C@H](CSCNC(C)=O)NC(=O)[C@H](CCCCN)NC(=O)[C@@H](N)Cc1ccccc1)C(=O)N[C@@H](CCCCN)C(=O)N[C@@H](CCCCN)C(=O)N[C@@H](CC(C)C)C(=O)NCC(=O)N[C@@H](C)C(=O)O [LFB Bip8]
- MIC S. aureus ([1]; ATCC 25923): 15 µg/mL (≈ 7.13 µM)
- MIC E. coli ([2]; ATCC 25922): 15 µg/mL (≈ 7.13 µM)

Compound: CSCC[C@H](NC(=O)[C@H](CCC(=O)O)NC(=O)[C@H](Cc1c[nH]c2ccccc12)NC(=O)[C@H](CCC(N)=O)NC(=O)[C@H](Cc1c[nH]c2ccccc12)NC(=O)[C@H](CCCNC(=N)N)NC(=O)[C@H](CC(C)C)NC(=O)[C@H](CSCNC(C)=O)NC(=O)[C@H](CCCCN)NC(=O)[C@H](C)N)C(=O)N[C@@H](CCCNC(=N)N)C(=O)N[C@@H](CCCCN)C(=O)N[C@@H](Cc1ccc(O)cc1)C(=O)NCC(=O)NCC(=O)O [LFM A1 W8 Y13] (H-AKC(Acm)LRWQWEMRKYGG-OH; N-terminus and C-terminus assumed)
- MIC S. aureus ([1]; ATCC 25923): >1000 µg/mL
- MIC E. coli ([2]; ATCC 25922): 500 µg/mL (≈ 252 µM)

Compound: CSCC[C@H](NC(=O)[C@H](CCCNC(=N)N)NC(=O)[C@H](Cc1c[nH]c2ccccc12)NC(=O)[C@H](CCC(N)=O)NC(=O)[C@H](Cc1c[nH]c2ccccc12)NC(=O)[C@H](CCCNC(=N)N)NC(=O)[C@H](CC(C)C)NC(=O)[C@H](CSCNC(C)=O)NC(=O)[C@H](CCCCN)NC(=O)[C@H](C)N)C(=O)N[C@@H](CCCNC(=N)N)C(=O)N[C@@H](CCCCN)C(=O)N[C@@H](Cc1ccc(O)cc1)C(=O)NCC(=O)NCC(=O)O [LFM A1 R9 W8 Y13] (H-AKC(Acm)LRWQWRMRKYGG-OH; N-terminus and C-terminus assumed)
- MIC S. aureus ([1]; ATCC 25923): 200 µg/mL (≈ 99.5 µM)
- MIC E. coli ([2]; ATCC 25922): 50 µg/mL (≈ 24.9 µM)

Compound: YRWARWWRR-NH2 [LFM 17-25 A4R2,8, 9W3, 7Y1NH2]
- MIC S. aureus ([1]; ATCC 25923): 5 µg/mL
- MIC E. coli ([2]; ATCC 25922): 10 µg/mL

Compound: CSCC[C@H](NC(=O)[C@H](CCCNC(=N)N)NC(=O)[C@H](Cc1c[nH]c2ccccc12)NC(=O)[C@H](CCC(N)=O)NC(=O)[C@H](Cc1c[nH]c2ccccc12)NC(=O)[C@H](CCCNC(=N)N)NC(=O)[C@H](CCCNC(=N)N)NC(=O)[C@@H](N)CSCNC(C)=O)C(=O)N[C@@H](CCCCN)C(=O)N[C@@H](CCCCN)C(=O)N[C@@H](CC(C)C)C(=O)NCC(=O)N[C@@H](C)C(=O)O [LFB 19-31] (H-C(Acm)RRWQWRMKKLGA-OH; N-terminus assumed)
- MIC S. aureus ([1]; ATCC 25923): >250 µg/mL
- MIC S. aureus ATCC 25923 ([1]; ATCC 25923): > 250 µg/mL
- MIC S. aureus ATCC 25923 ([1]; Table 1, value in brackets): > 150 µM
- MIC E. coli ([2]; ATCC 25922): 200 µg/mL (≈ 112 µM)
- MIC E. coli ATCC 25922 ([2]; ATCC 25922): 200 µg/mL
- MIC E. coli ATCC 25922 ([2]; Table 1, value in brackets): 120 µM

Compound: CSCC[C@H](NC(=O)[C@H](CCCNC(=N)N)NC(=O)[C@H](Cc1c[nH]c2ccccc12)NC(=O)[C@H](CCC(N)=O)NC(=O)[C@H](Cc1c[nH]c2ccccc12)NC(=O)[C@H](CCCNC(=N)N)NC(=O)[C@H](CCCNC(=N)N)NC(=O)[C@H](CSCNC(C)=O)NC(=O)[C@H](CCCCN)NC(=O)[C@H](C)N)C(=O)N[C@@H](CCCCN)C(=O)N[C@@H](CCCCN)C(=O)N[C@@H](CC(C)C)C(=O)NCC(=O)N[C@@H](C)C(=O)O [LFB A1] (H-AKC(Acm)RRWQWRMKKLGA-OH)
- MIC S. aureus ([1]; ATCC 25923): >200 µg/mL
- MIC E. coli ([2]; ATCC 25922): 70 µg/mL (≈ 35.2 µM)

Compound: CSCC[C@H](NC(=O)[C@H](CCCNC(=N)N)NC(=O)[C@H](Cc1c[nH]c2ccccc12)NC(=O)[C@H](CCC(N)=O)NC(=O)[C@H](Cc1ccc(-c2ccccc2)cc1)NC(=O)[C@H](CCCNC(=N)N)NC(=O)[C@H](CCCNC(=N)N)NC(=O)[C@H](CSCNC(C)=O)NC(=O)[C@H](CCCCN)NC(=O)[C@@H](N)Cc1ccccc1)C(=O)N[C@@H](CCCCN)C(=O)N[C@@H](CCCCN)C(=O)N[C@@H](CC(C)C)C(=O)NCC(=O)N[C@@H](C)C(=O)O [LFB Bip6]
- MIC S. aureus ([1]; ATCC 25923): 25 µg/mL (≈ 11.9 µM)
- MIC E. coli ([2]; ATCC 25922): 25 µg/mL (≈ 11.9 µM)

Compound: CSCC[C@H](NC(=O)[C@H](CCCNC(=N)N)NC(=O)[C@H](Cc1c[nH]c2ccccc12)NC(=O)[C@H](CCC(N)=O)NC(=O)[C@H](Cc1c[nH]c2ccccc12)NC(=O)[C@H](CCC(N)=O)NC(=O)[C@H](Cc1ccc(O)cc1)NC(=O)[C@H](CSCNC(C)=O)NC(=O)[C@H](CCCCN)NC(=O)[C@@H](N)CO)C(=O)N[C@@H](CCCNC(=N)N)C(=O)N[C@@H](CCCCN)C(=O)N[C@@H](CC(C)C)C(=O)NCC(=O)N[C@@H](C)C(=O)O [LFGW8, H2N-Ser-Lys-Cys-Tyr-Gln-Trp-Gln-Trp-Arg-Met-Arg-Lys-Leu-Gly-Ala-COOH] (H-SKC(Acm)YQWQWRMRKLGA-OH)
- MIC S. aureus ([1]; Table 4, unit assumed): > 1000 µg/mL
- MIC E. coli ([2]; Table 4): 500 µg/mL (≈ 248 µM)

Compound: CSCC[C@H](NC(=O)[C@H](CCCNC(=N)N)NC(=O)[C@H](Cc1c[nH]c2ccccc12)NC(=O)[C@H](CCC(N)=O)NC(=O)[C@H](Cc1c[nH]c2ccccc12)NC(=O)[C@H](CCCNC(=N)N)NC(=O)[C@H](CCCNC(=N)N)NC(=O)[C@H](CSCNC(C)=O)NC(=O)[C@H](CCCCN)NC(=O)[C@@H](N)Cc1ccccc1)C(=O)N[C@@H](CCCCN)C(=O)N[C@@H](C)C(=O)N[C@@H](CC(C)C)C(=O)NCC(=O)N[C@@H](C)C(=O)O [LFB A12] (H-FKC(Acm)RRWQWRMKALGA-OH)
- MIC S. aureus ([1]; ATCC 25923): >200 µg/mL
- MIC E. coli ([2]; ATCC 25922): 50 µg/mL (≈ 24.9 µM)

Compound: CSCC[C@H](NC(=O)[C@H](CCC(=O)O)NC(=O)[C@H](Cc1c[nH]c2ccccc12)NC(=O)[C@H](CCC(N)=O)NC(=O)[C@H](Cc1c[nH]c2ccccc12)NC(=O)[C@H](CCCNC(=N)N)NC(=O)[C@H](CC(C)C)NC(=O)[C@H](CSCNC(C)=O)NC(=O)[C@H](CCCCN)NC(=O)[C@@H](N)CCCNC(=N)N)C(=O)N[C@@H](CCCNC(=N)N)C(=O)N[C@@H](CCCCN)C(=O)N[C@@H](Cc1ccc(O)cc1)C(=O)NCC(=O)NCC(=O)O [LFM R1 W8 Y13] (H-RKC(Acm)LRWQWEMRKYGG-OH; N-terminus and C-terminus assumed)
- MIC S. aureus ([1]; ATCC 25923): 50 µg/mL (≈ 24.2 µM)
- MIC E. coli ([2]; ATCC 25922): 50 µg/mL (≈ 24.2 µM)
